Results from publication PMC8207694, “Nucleoside transporter-guided cytarabine-conjugated liposomes for intracellular methotrexate delivery and cooperative choriocarcinoma therapy” (Journal of Nanobiotechnology, 2021).

Columns and labels:
JEG-3 cells = assay: Cell cycle analysis (PI, flow cytometry); format: cell-based, human; conditions: 1 μg/mL MTX-equivalent, 24 h; control 5.44 ± 0.97%
Method: For cell cycle analysis, JEG-3 cells (10^5/well) were added to 6-well plates for 24 h and were then treated with culture medium or MTX formulation-contained culture medium at an equivalent MTX concentration (1 μg/mL) for another 24 h. Then, JEG-3 cells were collected (1000 rpm, 5 min) and fixed using 70% ethanol for 8 h at 4℃. After resuspended in PI/RNase Staining buffer for 30 min, the cell cycle was determined with flow cytometry.

[1] = Biodistribution of MTX in tumor-bearing mice; format: in vivo; conditions: 2 h post-treatment
Method: JEG-3 tumor-bearing mice were also used for organ distribution studies. Animal groups and dosage were consistent with pharmacokinetic studies. For bio-distribution studies of MTX formulations, three animals per group were sacrificed at 2, 8, and 24 h following treatment, and tumors, lungs, kidneys, hearts, livers, and spleens were isolated, weighed, and frozen. These tissues were then homogenized, spun down for 1 min, rested for 45 min, and combined with 100 µl of 10% trichloroacetic acid solution followed by vortexing for 1 min, adding 5 mL of acetonitrile, and incubating for 10 min. Samples were then spun down for 10 min at 6,000 rpm, and supernatants were isolated, combined with mobile phase, and passed through 0.22 µm membrane filters. Finally, HPLC was applied to estimate the drug content of samples.

CN(Cc1cnc2nc(N)nc(N)c2n1)c1ccc(C(=O)N[C@@H](CCC(=O)O)C(=O)O)cc1 [free MTX, Methotrexate]
JEG-3 cells arrested at the S phase (JEG-3 cells): 11.59 ± 1.53%
main organs of MTX distribution [1]: found in the kidneys and liver
